How the values were obtained:
Assay type in all cases: cell-based, mice
C2C12 cells = experiment: TNF-α induced muscle cell injury model, intracellular ROS; conditions: 4 days in differentiation medium, relative to 0 ng/mL
Description: Firstly, C2C12 cells (i.e., myoblasts of mice, purchased from ATCC) were cultured in H-DMEM medium (purchased from Sigma company) until 80% confluence was attained (i.e., the mixed cell monolayer comprised 80% of the area). Thereafter, the cells were separated into four groups, and the mediums of all the groups were replaced by differentiation mediums supplemented with 2% horse serum. TNF-α (purchased from Sigma company) was then added into those mediums to provide final concentrations of 0, 2, 5 or 10 ng/mL respectively. After being co-treated with the differentiation medium and TNF-α for 4 days, the intracellular reactive oxidative stress (ROS) of the C2C12 cells was measured to serve as the index for model evaluation. Accordingly, a TNF-α induced muscle cell injury model was established. Finally, the group that was not treated with TNF-α (i.e., the concentration of TNF-α was 0 ng/mL) served as a basis for calculating the relative intracellular ROS of the other groups. The results are shown in FIG. 1 (all the data are presented as average values±SEM, n=6, analyzed with a t-test, ***p<0.001).

myogenin = experiment: Expression of myoblast differentiation marker myogenin in C2C12 cells by Western blot; conditions: for Expression level of myogenin (%): 4 days, control group = 100%; for increase of the expression level of myogenin protein: vs control
Excerpt: (§1) As described above, myogenin and MyHC can be used as markers for myoblast differentiation. To investigate whether FU-LING extract and tumulosic acid have the effect of promoting differentiation of myoblasts, tumulosic acid (purchased from Sinphar pharmaceutical co. ltd), FU-LING meat extract obtained from Example 1 (1-4), FU-LING epidermis extract obtained from Example 1 (1-6), and the FU-LING fermentation extract obtained from Example 1 (1-7) were formulated into the following: (1) tumulosic acid solution, (2) FU-LING meat extract solution, (3) FU-LING epidermis extract solution, and (4) FU-LING fermentation extract solution, respectively, in dimethyl sulfoxide (DMSO; purchased from Sigma Company).
(§2) After 80% confluence of cells was attained in H-DMEM medium, cells were separated into fourteen groups and treated as follows: • (1) Control group: The medium was replaced by a differentiation medium supplemented with 2% horse serum, and the cells were cultured for 4 days. • (2) Meat extract group (3 groups): The medium was replaced by a differentiation medium supplemented with 2% horse serum, and FU-LING meat extract solution was then added into the medium (the final concentration was 0.1, 1 or 10 ng/mL) to perform a co-treatment for 4 days. • (3) Epidermis extract group (4 groups): The medium was replaced by a differentiation medium supplemented with 2% horse serum, and FU-LING epidermis extract solution was then added into the medium (the final concentration was 0.01, 0.1, 0.5 or 1 ng/mL) to perform a co-treatment for 4 days. • (4) Fermentation extract group (3 groups): The medium was replaced by a differentiation medium supplemented with 2% horse serum, and FU-LING fermentation extract solution was then added into the medium (the final concentration was 0.2, 2, or 20 ng/mL) to perform a co-treatment for 4 days. • (5) Tumulosic acid group (4 groups): The medium was replaced by a differentiation medium supplemented with 2% horse serum, and tumulosic acid solution was then added into the medium (the final concentration was 0.01, 0.1, 1 or 10 ng/mL) to perform a co-treatment for 4 days.
(§3) After that, cell proteins in each group were extracted. Thereafter, the expression levels of myoblast differentiation markers (myogenin and MyHC) were detected by Western blot. Finally, the control group served as a basis (e.g., the expression level of the control group was 100%) for calculating the relative expression levels of myogenin and MyHC proteins in each group.

MyHC = experiment: Expression of myoblast differentiation marker MyHC in C2C12 cells by Western blot; conditions: for Expression level of MyHC (%): 4 days, control group = 100%
Excerpt: as §1, §2, §3

Compound | intracellular reactive oxidative stress (ROS) of C2C12 cells (C2C12 cells; 5 ng/mL TNF-α) | intracellular reactive oxidative stress (ROS) of C2C12 cells (C2C12 cells; 10 ng/mL TNF-α) | Expression level of myogenin (%) (myogenin; 0.01 ng/mL) | Expression level of myogenin (%) (myogenin; 0.1 ng/mL) | Expression level of myogenin (%) (myogenin; 1 ng/mL) | Expression level of myogenin (%) (myogenin; 10 ng/mL) | increase of the expression level of myogenin protein (myogenin; 10 μg/ml) | increase of the expression level of myogenin protein (myogenin; 0.01-0.1 μg/ml) | Expression level of MyHC (%) (MyHC; 0.01 ng/mL) | Expression level of MyHC (%) (MyHC; 0.1 ng/mL) | Expression level of MyHC (%) (MyHC; 1 ng/mL) | Expression level of MyHC (%) (MyHC; 10 ng/mL) | increase of the expression level of MyHC protein (MyHC; 10 μg/ml, vs control)
TNF-α | increased | significantly increased | – | – | – | – | – | – | – | – | – | – | –
C=C(CC[C@@H](C(=O)O)[C@H]1[C@H](O)C[C@@]2(C)C3=C(CC[C@]12C)[C@@]1(C)CC[C@H](O)C(C)(C)[C@@H]1CC3)C(C)C [Tumulosic acid, tumulosic acid] | – | – | 130 | 130 | 160 | 490 | about 390% | about 30% | 90 | 80 | 70 | 180 | about 80%
